# Data published in ChEMBL document CHEMBL4609989, “Synthesis and antileishmanial activity of fluorinated rhodacyanine analogues: The 'fluorine-walk' analysis” (Bioorg Med Chem, 2020).
# Active and inactive are the calls of the source. No cut-off for these calls is given here.
# Key:
# [1] = tested on: Leishmania orientalis; assay: Antileishmanial activity against Leishmania orientalis MHOM/TH/2010/PCM2 promastigote at 0.1 uM incubated for 72 hrs by resazurin dye based colorimetric assay relative to control; assay type: functional; details: for inhibition at 0.1 µM: Leishmania orientalis, MHOM/TH/2010/PCM2, 72 h
# [2] = tested on: J774.A1; assay: Cytotoxicity against mouse J774A.1 cells assessed as reduction in cell viability at 0.25 uM incubated for 72 hrs by colorimetric assay relative to control; assay type: cell-based; details: j774.a1, 72 h
# [3] = tested on: Leishmania orientalis; assay: Antileishmanial activity against Leishmania orientalis MHOM/TH/2010/PCM2 axenic amastigotes at 0.25 uM incubated for 72 hrs by resazurin dye based colorimetric assay relative to control; assay type: functional; details: Leishmania orientalis, MHOM/TH/2010/PCM2, 72 h
# [4] = tested on: Leishmania martiniquensis; assay: Antileishmanial activity against Leishmania martiniquensis MHOM/MQ/92/MAR promastigote at 0.25 uM incubated for 72 hrs by resazurin dye based colorimetric assay relative to control; assay type: functional; details: for inhibition at 0.25 µM: Leishmania martiniquensis, MHOM/MQ/92/MAR, 72 h
# [5] = tested on: Leishmania martiniquensis; assay: Antileishmanial activity against Leishmania martiniquensis MHOM/MQ/92/MAR promastigote at 0.1 uM incubated for 72 hrs by resazurin dye based colorimetric assay relative to control; assay type: functional; details: for inhibition at 0.1 µM: Leishmania martiniquensis, MHOM/MQ/92/MAR, 72 h
# [6] = tested on: Leishmania orientalis; assay: Antileishmanial activity against Leishmania orientalis MHOM/TH/2010/PCM2 promastigote at 0.25 uM incubated for 72 hrs by resazurin dye based colorimetric assay relative to control; assay type: functional; details: Leishmania orientalis, MHOM/TH/2010/PCM2, 72 h
# [7] = tested on: Leishmania orientalis; assay: Antileishmanial activity against Leishmania orientalis MHOM/TH/2010/PCM2 promastigote incubated for 72 hrs by resazurin dye based colorimetric assay; assay type: functional, organism-based; details: Leishmania orientalis, MHOM/TH/2010/PCM2, 72 h
# [8] = tested on: Leishmania orientalis; assay: Antileishmanial activity against Leishmania orientalis MHOM/TH/2010/PCM2 axenic amastigotes incubated for 72 hrs by resazurin dye based colorimetric assay; assay type: functional, organism-based; details: Leishmania orientalis, MHOM/TH/2010/PCM2, 72 h
# [9] = tested on: J774.A1; assay: Cytotoxicity against mouse J774A.1 cells assessed as reduction in cell viability at 4.0 uM incubated for 72 hrs by colorimetric assay relative to control; assay type: cell-based; details: j774.a1, 72 h
# [10] = tested on: Leishmania martiniquensis; assay: Antileishmanial activity against Leishmania martiniquensis MHOM/MQ/92/MAR promastigote incubated for 72 hrs by resazurin dye based colorimetric assay; assay type: functional, organism-based; details: Leishmania martiniquensis, MHOM/MQ/92/MAR, 72 h
Compound,inhibition at 0.1 µM [1] [%],Activity [2],inhibition at 0.25 µM [3] [%],inhibition at 0.25 µM [4] [%],inhibition at 0.1 µM [5] [%],inhibition at 0.25 µM [6] [%],IC50 [7] [nM],IC50 [8] [nM],Activity [9] [%],IC50 [10] [nM],inhibition [1],inhibition [4],inhibition [5]
CCn1c(=O)/c(=C/C=C2\Sc3cc(F)ccc3N2C)s/c1=C\c1sc2ccccc2[n+]1C.[Cl-],60,Non-Toxic,91.2,87.8,40.3,96,88,223,61.8,,,,
CCn1c(=O)/c(=C/C=C2\Sc3cc(F)ccc3N2C)s/c1=C\c1sc2cc(F)ccc2[n+]1C.[Cl-],1.9,Non-Toxic,62.1,62.9,17.6,76,,,46,,,,
CCn1c(=O)/c(=C/C=C2\Sc3ccccc3N2C)s/c1=C\c1sc2ccccc2[n+]1C.[Cl-],11.5,Non-Toxic,36.8,70.8,21,81.5,302,909,19.2,658,,,
CCCCCCCCCCCCCCCCOP(=O)([O-])OCC[N+](C)(C)C [MILTEFOSINE],,7.3%,24.9,,,4,,,12.4,15800,inactive,inactive,inactive
CCn1c(=O)/c(=C/C=C2\Sc3ccccc3N2C)s/c1=C\c1sc2ccc(F)cc2[n+]1C.Cc1ccc(S(=O)(=O)[O-])cc1,78.8,Non-Toxic,91,89.5,85.4,91.7,98,110,31.1,76,,,
CCn1c(=O)/c(=C/C=C2\Sc3ccccc3N2C)s/c1=C\c1sc2cc(F)c(F)cc2[n+]1C.[Cl-],61.6,Non-Toxic,92.8,91.2,80.6,89.5,114,77,18.6,106,,,
C[C@@H]1[C@H](O)[C@@H](C)/C=C/C=C/C=C/C=C/C=C/C=C/C=C/[C@H](O[C@@H]2O[C@H](C)[C@@H](O)[C@H](N)[C@@H]2O)C[C@@H]2O[C@](O)(C[C@@H](O)C[C@@H](O)[C@H](O)CC[C@@H](O)C[C@@H](O)CC(=O)O[C@H]1C)C[C@H](O)[C@H]2C(=O)O [AMPHOTERICIN B],96.2,Non-Toxic,91.1,97.5,94.2,96.7,23,108,16.7,31,,,
CCn1c(=O)/c(=C/C=C2\Sc3c(F)cccc3N2C)s/c1=C\c1sc2ccccc2[n+]1C.[Cl-],,Non-Toxic,47.9,92.7,56.1,75.4,,,72.8,272,inactive,,
CCn1c(=O)/c(=C/C=C2\Sc3ccccc3N2C)s/c1=C\c1sc2c(F)cccc2[n+]1C.[Cl-],13.9,Non-Toxic,42.9,85.2,41.1,88.9,,,88.5,,,,
CCn1c(=O)/c(=C/C=C2\Sc3ccc(F)cc3N2C)s/c1=C\c1sc2ccc(F)cc2[n+]1C.[Cl-],57.5,Non-Toxic,87.9,79.8,56.4,81.5,161,80,13.8,,,,
CCn1c(=O)/c(=C/C=C2\Sc3ccc(F)cc3N2C)s/c1=C\c1sc2ccccc2[n+]1C.[Cl-],50.1,Non-Toxic,92.2,89.2,76.9,90.4,133,134,37,139,,,
CCn1c(=O)/c(=C/C=C2\Sc3ccccc3N2C)s/c1=C\c1sc2cccc(F)c2[n+]1C.[Cl-],67.5,Non-Toxic,58.2,64.1,37.7,92.9,65,,24.9,,,,
CCn1c(=O)/c(=C/C=C2\Sc3ccccc3N2C)s/c1=C\c1sc2cc(F)ccc2[n+]1C.[Cl-],85.7,Non-Toxic,78.5,71.1,57.1,95.4,40,200,41.3,,,,
CCn1c(=O)/c(=C/C=C2\Sc3ccc(F)cc3N2C)s/c1=C\c1sc2cc(F)ccc2[n+]1C.[Cl-],20.4,Non-Toxic,88.9,75.9,43.9,79.3,,81,21,,,,
CCn1c(=O)/c(=C/C=C2\Sc3cc(C(F)(F)F)ccc3N2C)s/c1=C\c1sc2ccc(F)cc2[n+]1C.[Cl-],,13.3%,68.4,39.2,5.9,33.3,,,52.2,,inactive,,
CCn1c(=O)/c(=C/C=C2\Sc3cccc(F)c3N2C)s/c1=C\c1sc2ccccc2[n+]1C.[Cl-],33,Non-Toxic,40.2,73,30,84.2,,,13.4,,,,
CCn1c(=O)/c(=C/C=C2\Sc3cc(F)ccc3N2C)s/c1=C\c1sc2ccc(F)cc2[n+]1C.[Cl-],32.3,Non-Toxic,93,93.4,54.3,93,,85,20.7,142,,,
CCn1c(=O)/c(=C/C=C2\Sc3ccccc3N2C)s/c1=C\c1sc2cc(C(F)(F)F)ccc2[n+]1C.[Cl-],39,0.5%,71.1,24.9,10.5,87.6,,,33.3,,,,
CCn1c(=O)/c(=C/C=C2\Sc3ccccc3N2C)s/c1=C\c1sc2cc(OC(F)(F)F)ccc2[n+]1C.[Cl-],12.5,Non-Toxic,59.2,27.1,8.7,60.9,,,48.6,,,,
